Test results reported in US20120034613A1, “Apparatus and Method for Testing Relationships Between Gene Expression and Physical Appearance of Skin” (NSE Products, Inc., priority 2010, published 2012).

System: EpidermFT™ Skin Model (EFT-400) full thickness skin cultures
Assay: Affymetrix GeneChip HG U133 Plus 2.0 microarray global gene expression, agent-exposed vs untreated skin cultures
Format: cell-based, human
Settings: 0.5% vs untreated, 24 hr; down

OCc1ccccc1O[C@@H]1O[C@H](CO)[C@@H](O)[C@H](O)[C@H]1O [Salicin, 2-(Hydroxymethyl)phenyl β-D-glucospyranoside]
Fold change ABHD12 (228124_at): 3.821
Fold change ACAD8 (221669_s_at): 3.404
Fold change ACOX1 (209600_s_at): 3.361
Fold change ACOX1 (213501_at): 3.854
Fold change ACOX1 (227962_at): 3.737
Fold change ADAP2 (222876_s_at): 3.579
Fold change AGPAT9 (224480_s_at): 3.106
Fold change AHNAK2 (1558378_a_at): 3.138
Fold change AKTIP (223894_s_at): 3.08
Fold change ALDH3A2 (210544_s_at): 3.633
Fold change ALDH3B2 (204941_s_at): 3.429
Fold change ALOX15B (206714_at): 3.512
Fold change ANKFN1 (1553211_at): 3.62
Fold change ANKRD35 (231118_at): 3.392
Fold change ANKRD57 (219496_at): 3.699
Fold change APOBEC3B (206632_s_at): 3.0369
Fold change AQP3 (39248_at): 3.579
Fold change ARHGEF5 (204765_at): 3.689
Fold change ARL4A (205020_s_at): 3.913
Fold change ARL5A (218150_at): 3.293
Fold change ARL5A (226617_at): 3.1
Fold change ASPHD2 (227015_at): 3.321
Fold change BCL11A (210347_s_at): 3.112
Fold change BEND5 (219670_at): 3.381
Fold change BEX2 (224367_at): 3.212
Fold change BTBD16 (1552566_at): 3.232
Fold change C1orf106 (219010_at): 3.744
Fold change C1orf161 (1553333_at): 3.474
Fold change C2orf54 (220149_at): 3.333
Fold change C4orf32 (227856_at): 3.328
Fold change C10orf57 /// C10orf58 (224435_at): 3.829
Fold change C10orf99 (227735_s_at): 3.719
Fold change C19orf33 (223631_s_at): 3.241
Fold change C20orf74 (232500_at): 3.366
Fold change CA2 (209301_at): 3.433
Fold change CAMK1D (235626_at): 3.726
Fold change CARD10 (210026_s_at): 3.475
Fold change CCNB1 (228729_at): 3.349
Fold change CD9 (201005_at): 3.444
Fold change CDH3 (203256_at): 3.506
Fold change CDKN2B (236313_at): 3.737
Fold change CDS1 (226187_at): 3.08
Fold change CGN (223232_s_at): 3.873
Fold change CHAC2 (235117_at): 3.55
Fold change CHD7 (218829_s_at): 3.089
Fold change CLDN4 (201428_at): 3.454
Fold change CLTB (205172_x_at): 3.663
Fold change CLTB (211043_s_at): 3.446
Fold change COBLL1 (215393_s_at): 3.301
Fold change COL17A1 (204636_at): 3.576
Fold change CPEB3 (205773_at): 3.876
Fold change CTA-221G9.4 /// LOC100131004 (225525_at): 3.401
Fold change CYP2R1 (227109_at): 3.716
Fold change CYP27C1 (1568868_at): 3.64
Fold change D4S234E (209569_x_at): 3.313
Fold change D4S234E (209570_s_at): 3.871
Fold change DAAM1 (216060_s_at): 3.84
Fold change DAAM1 (226666_at): 3.519
Fold change DAPL1 (229290_at): 3.089
Fold change DGAT2 (224327_s_at): 3.427
Fold change DGAT2 (226064_s_at): 3.883
Fold change DHRS1 (213279_at): 3.907
Fold change DHRS11 (218756_s_at): 3.13
Fold change DLX3 (231778_at): 3.089
Fold change DOCK8 (225502_at): 3.608
Fold change DUOX1 (219597_s_at): 3.516
Fold change DUOXA1 (1554648_a_at): 3.865
Fold change EBP (213787_s_at): 3.0355
Fold change EFNA5 (214036_at): 3.139
Fold change EGR1 (201693_s_at): 3.681
Fold change EGR2 (205249_at): 3.497
Fold change ELOVL6 (204256_at): 3.121
Fold change ELOVL6 (210868_s_at): 3.441
Fold change ENC1 (201340_s_at): 3.246
Fold change EPB41L4A (228256_s_at): 3.298
Fold change EPHA4 (229374_at): 3.101
Fold change EPN3 (223895_s_at): 3.929
Fold change F3 (204363_at): 3.192
Fold change F11R (222354_at): 3.541
Fold change FA2H (219429_at): 3.37
Fold change FABP7 (205029_s_at): 3.263
Fold change FABP7 (205030_at): 3.804
Fold change FAM63A (221856_s_at): 3.1
Fold change FAM72A /// FAM72B /// GCUD2 (225834_at): 3.211
Fold change FAM83B (1563900_at): 3.497
Fold change FAM83D (225687_at): 3.895
Fold change FAM83H (226129_at): 3.739
Fold change FAM84B (225864_at): 3.566
Fold change FAM169A (235048_at): 3.759
Fold change FBXO3 (218432_at): 3.446
Fold change FCHSD1 (226698_at): 3.141
Fold change FERMT1 (218796_at): 3.784
Fold change FGFBP1 (205014_at): 3.406
Fold change FIGN (239710_at): 3.472
Fold change FLNB (208614_s_at): 3.765
Fold change FLVCR2 (219316_s_at): 3.532
Fold change FLVCR2 (222866_s_at): 3.373
Fold change FMO5 (205776_at): 3.223
Fold change FOXE1 (206912_at): 3.121
Fold change FXYD3 (202489_s_at): 3.827
Fold change GAB1 (229114_at): 3.301
Fold change GFOD1 (219821_s_at): 3.679
Fold change GGT6 (236225_at): 3.426
Fold change GJB6 (231771_at): 3.289
Fold change GM2A (35820_at): 3.763
Fold change GM2A (212737_at): 3.6714
Fold change GM2A (235678_at): 3.427
Fold change GPR37 (209631_s_at): 3.265
Fold change GPR126 (213094_at): 3.256
Fold change GPT2 (224839_s_at): 3.555
Fold change GRHL1 (222830_at): 3.044
Fold change GSTA4 (235405_at): 3.3
Fold change H19 (224646_x_at): 3.532
